# In US20040019430A1, “Methods and systems for analyzing complex biological systems” (priority 2001, published 2004):
# Assays:
# [1] = test system: Saccharomyces cerevisiae wild type strain BY4743; test: AF1 combined gene expression and metabolite data mapped to KEGG reactions and pathways; type: cell-based; conditions: yeast AF1
# Text: In AF1, two different technologies were utilized: gene expression analysis (for examination of mRNA expression) and metabolite analysis. […] As noted previously, existing metabolic databases may be helpful in practicing the methods and systems of the present invention, but many databases include limitations that make their use in data analysis and pathway mapping less than straightforward. […] This caveat to KEGG makes it difficult to pinpoint the correct pathway when attempting to link a gene to a specific pathway. […] The pathway score indicates how meaningful the mapping is, or how likely it is to be correctly indicative of the pathway involved in the perturbation under examination. The method provides a pathway score based on perturbation levels of genes and/or compounds and the information content of each gene and/or compound in the pathway, i.e., a pathway score indicates the extent to which other pathways are mapped to a gene/compound. For example, imagine that two genes are perturbed in a particular experiment. One gene maps to only one pathway, giving a high degree of probability that the perturbed pathway is the one identified in the mapping. The second gene maps to three pathways. In the later example, there is only one-third the probability that the pathway identified in the mapping is the one perturbed. The present invention provides a method for calculating the pathway scores, so that more weight is given to a score of a gene or compound that maps to only one pathway than to a score of a gene or compound that maps to multiple pathways. […] Where n=the total number of genes in the pathway; ipath—count=the number of pathways containing a gene; and j=the number of genes in the pathway that are perturbed. Another factor to be considered when weighting a pathway score is the degree of perturbation. Degree of perturbation can be calculated, for example, based on a number of standard deviations from a norm, and included in an equation such as the one shown above, so that not only the number of pathways is taken into account, but also accounts for the amount of gene transcript or compound present as compared to a control. Compounds were also linked to pathways using the KEGG database. KEGG links 676 compounds measured in AF1 to a total of 92 pathways. Of the 676 compounds under consideration, 77 were detected in the AF1 samples. […] The multiple mapping feature of KEGG makes it difficult to pinpoint the correct pathway when trying to link a compound to a specific pathway. […] A pathway score calculation is applied to the compounds to account for both information content (number of pathways a compound maps to) and perturbation level. The data were then combined to determine the number of reactions showing an enzyme and at least one compound perturbed, and to determine the number of pathways having at least one enzyme and one perturbed compound perturbed. The results of the analysis are represented in Tables 16 and 17, and were difficult to interpret, illustrating that the ability to draw conclusions from compound mapping to pathways is limited when absent additional data.
# [2] = test system: Saccharomyces cerevisiae wild type strain BY4743; test: AF1 metabolite analysis (GC-MS, LC-MS) of yeast cells treated with antifungal drugs; type: cell-based; design: Fold Change: scale not given here; conditions: for # Compounds perturbed by treatment: yeast, 2x MIC, two hours
smiles,measurement,setting,value
C[C@@H]1[C@H](O)[C@@H](C)/C=C/C=C/C=C/C=C/C=C/C=C/C=C/[C@H](O[C@@H]2O[C@H](C)[C@@H](O)[C@H](N)[C@@H]2O)C[C@@H]2O[C@](O)(C[C@@H](O)C[C@@H](O)[C@H](O)CC[C@@H](O)C[C@@H](O)CC(=O)O[C@H]1C)C[C@H](O)[C@H]2C(=O)O [Amphoteracin B],# Reactions (title: Number Of Pathways Having at Least One Enzyme and One Compound Perturbed),[1],37
same,# Reactions having an enzyme and at least one compound perturbed,[1],54
same,# Compounds perturbed by treatment,[2]; P < 0.05,16
same,# Compounds perturbed by treatment,[2]; P < 0.1,21
same,Fold Change,"[2]; metabolite 3-indolylacetonitri, platform nLC",−0.9998
same,Fold Change,"[2]; metabolite 4-aminobenzoic acid, platform pLC",0
same,Fold Change,"[2]; metabolite 4-methylcatechol, platform nLC",0
same,Fold Change,"[2]; metabolite 4-methylcatechol, platform pLC",0
same,Fold Change,"[2]; metabolite 4ambutyrate/dimglyc, platform pLC",0.01279
same,Fold Change,"[2]; metabolite 4aminobutyrate/dimg, platform nLC",−0.1983
same,Fold Change,"[2]; metabolite DL-aminoadipic acid, platform pLC",0.4703
same,Fold Change,"[2]; metabolite DLaminoadipic acid, platform nLC",1.411
same,Fold Change,"[2]; metabolite NacetylD-glucosamine, platform nLC",0
same,Fold Change,"[2]; metabolite NacetylD-glucosamine, platform pLC",0
same,Fold Change,"[2]; metabolite NacetylL-glutamate, platform nLC",−0.1078
same,Fold Change,"[2]; metabolite NacetylL-glutamate, platform pLC",0
same,Fold Change,"[2]; metabolite NacetylL-ornithine, platform nLC",0
same,Fold Change,"[2]; metabolite NacetylL-ornithine, platform pLC",1.319
same,Fold Change,"[2]; metabolite decanoic acid, platform nLC",−0.08716
same,Fold Change,"[2]; metabolite desmosterol, platform GC",0
same,Fold Change,"[2]; metabolite diaminopimelic acid, platform nLC",0
same,Fold Change,"[2]; metabolite diaminopimelic acid, platform pLC",0
same,Fold Change,"[2]; metabolite dihydrofolic acid, platform nLC",0
same,Fold Change,"[2]; metabolite dihydrofolic acid, platform pLC",0
same,Fold Change,"[2]; metabolite dipicolinic acid, platform pLC",0
same,Fold Change,"[2]; metabolite disaccaride1, platform GC",−1
same,Fold Change,"[2]; metabolite disaccaride2, platform GC",−0.9977
same,Fold Change,"[2]; metabolite disaccaride3, platform GC",−0.9977
same,Fold Change,"[2]; metabolite ergosterol, platform GC",2.303
same,Fold Change,"[2]; metabolite estrone, platform nLC",0
same,Fold Change,"[2]; metabolite farnesol, platform nLC",0
same,Fold Change,"[2]; metabolite folic acid, platform nLC",0
same,Fold Change,"[2]; metabolite folic acid, platform pLC",0
same,Fold Change,"[2]; metabolite fucosterol, platform GC",−0.6553
same,Fold Change,"[2]; metabolite fumaric/3m2oxobutan, platform nLC",0.4423
same,Fold Change,"[2]; metabolite gallic acid, platform nLC",0.1622
same,Fold Change,"[2]; metabolite gibberellic, platform nLC",0
same,Fold Change,"[2]; metabolite glucosamine-6PO4, platform nLC",−0.9951
same,Fold Change,"[2]; metabolite glucosamine-6PO4, platform pLC",0
same,Fold Change,"[2]; metabolite glucosamine, platform pLC",0
same,Fold Change,"[2]; metabolite glutamate, platform pLC",0.4341
same,Fold Change,"[2]; metabolite glutamic/acetylseri, platform nLC",0.1414
same,Fold Change,"[2]; metabolite glutamine/lysine, platform nLC",0.07919
same,Fold Change,"[2]; metabolite glutamine/lysine, platform pLC",0.3981
same,Fold Change,"[2]; metabolite glutamine, platform GC",−0.9116
same,Fold Change,"[2]; metabolite glutathione, platform pLC",−0.03348
same,Fold Change,"[2]; metabolite glycanopyrose, platform GC",−0.958
same,Fold Change,"[2]; metabolite glycerol, platform GC",−0.815
same,Fold Change,"[2]; metabolite glycine, platform GC",0.8807
same,Fold Change,"[2]; metabolite guanine, platform nLC",0
same,Fold Change,"[2]; metabolite guanosine, platform nLC",1.131
same,Fold Change,"[2]; metabolite guanosine, platform pLC",0.7598
same,Fold Change,"[2]; metabolite hexadecanoic acid, platform GC",−0.2427
same,Fold Change,"[2]; metabolite histidine, platform nLC",0
same,Fold Change,"[2]; metabolite histidine, platform pLC",0
same,Fold Change,"[2]; metabolite homogentisic/uric, platform nLC",0
same,Fold Change,"[2]; metabolite hydrocortisone, platform nLC",0
same,Fold Change,"[2]; metabolite hydrocortisone, platform pLC",0
same,Fold Change,"[2]; metabolite hypoxanthine, platform nLC",0.1655
same,Fold Change,"[2]; metabolite hypoxanthine, platform pLC",0.2057
same,Fold Change,"[2]; metabolite indole3-pyruvic acid, platform nLC",0
same,Fold Change,"[2]; metabolite inostol/glucos/sorb, platform nLC",−0.5905
same,Fold Change,"[2]; metabolite iso citric acid, platform GC",−0.6183
same,Fold Change,"[2]; metabolite isocitric/citric/qu, platform nLC",2.549
same,Fold Change,"[2]; metabolite isoleucine, platform GC",−0.9533
same,Fold Change,"[2]; metabolite itaconic acid dimes, platform pLC",0
same,Fold Change,"[2]; metabolite jasmonic acid, platform nLC",0
same,Fold Change,"[2]; metabolite kinetin, platform nLC",0
same,Fold Change,"[2]; metabolite kinetin, platform pLC",0
same,Fold Change,"[2]; metabolite lactic acid, platform nLC",−0.02583
same,Fold Change,"[2]; metabolite lanosterol, platform GC",−1
same,Fold Change,"[2]; metabolite lauric acid, platform nLC",0.1225
same,Fold Change,"[2]; metabolite leucine/isoleucine/, platform nLC",0.1319
same,Fold Change,"[2]; metabolite leucine/isoleucine/, platform pLC",0.2746
same,Fold Change,"[2]; metabolite leucine, platform GC",−0.9443
same,Fold Change,"[2]; metabolite luteolin, platform nLC",0
same,Fold Change,"[2]; metabolite luteolin, platform pLC",0
same,Fold Change,"[2]; metabolite lysine, platform GC",−0.3925
same,Fold Change,"[2]; metabolite malic acid, platform GC",−0.963
same,Fold Change,"[2]; metabolite malic acid, platform nLC",0.6212
same,Fold Change,"[2]; metabolite malonic acid, platform nLC",0
same,Fold Change,"[2]; metabolite mannitol, platform pLC",0.4543
same,Fold Change,"[2]; metabolite menthol*, platform nLC",−0.07013
same,Fold Change,"[2]; metabolite methionine, platform nLC",0
same,Fold Change,"[2]; metabolite methionine, platform pLC",0.3299
same,Fold Change,"[2]; metabolite mevalonic acid lactone, platform GC",−0.1276
same,Fold Change,"[2]; metabolite mevalonic lactone, platform pLC",−0.4606
same,Fold Change,"[2]; metabolite niacinamide, platform pLC",0
same,Fold Change,"[2]; metabolite nicotinic acid, platform nLC",0.3131
same,Fold Change,"[2]; metabolite nicotinic acid, platform pLC",−0.9989
same,Fold Change,"[2]; metabolite nopaline, platform nLC",0.3342
same,Fold Change,"[2]; metabolite nopaline, platform pLC",0
same,Fold Change,"[2]; metabolite octadecanoic acid, platform GC",0.21
same,Fold Change,"[2]; metabolite oleic acid, platform GC",−0.4593
same,Fold Change,"[2]; metabolite oleic acid, platform nLC",0.689
same,Fold Change,"[2]; metabolite ornithine2, platform GC",−1
same,Fold Change,"[2]; metabolite ornithine3, platform GC",−0.9853
same,Fold Change,"[2]; metabolite ornithine, platform nLC",2.534
same,Fold Change,"[2]; metabolite ornithine, platform pLC",0.5049
same,Fold Change,"[2]; metabolite orotic acid, platform nLC",8380
same,Fold Change,"[2]; metabolite palmiteliadic acid, platform GC",0.515
same,Fold Change,"[2]; metabolite palmitic acid, platform nLC",0.3979
same,Fold Change,"[2]; metabolite phenylalanine, platform GC",−0.9797
same,Fold Change,"[2]; metabolite phenylalanine, platform nLC",−0.1906
